From article PMC7024556 (Molecules, 2020)

Legend:
[1] = tested on: poly (ADP-ribose) (PAR) polymerization in HeLa cells; test: Cellular PARylation assay (H2O2-induced PAR polymerization); format: cell-based; details: for IC50: Homo sapiens, 18 h compound, 500 μM H2O2, read-out: Inhibit Polymerization of PAR IC50
Experimental: The cellular PARylation assay evaluated the ability of test compounds to inhibit polymerization of PAR. Hela cells were seeded in 96-well plates (10,000 cells/well) in 200 μL of cell complete medium, and were allowed to adhere for 4 h at 37 °C in a humidified atmosphere of 5% CO2. The medium was then removed from the plates, and the cells were treated with varying concentrations of test compounds for 18 h. 100 μL serum-free medium with 500 μM H2O2 solution was added, and the plate was kept at 37 °C for 5 min. Next, cells were fixed for 20 min with prechilled methanol at −20 °C and were incubated with 60 μL Poly(ADP-ribose) monoclonal antibody (1:2000) (prepared at 1x PBS containing 0.05% Tween-20 with 1% bovine serum albumin) at 37 °C for 2 h, followed by incubation with 60 μL IRDye 800CW goat anti-mouse IgG (diluted to 1:5000) and DNA stain DRAQ5 (1:5000) (prepared at 1× PBS containing 0.05% Tween-20 with 1% bovine serum albumin) at 37 °C for 2 h. The fluorescent signal was normalized with the DRAQ5 signal, and IC50 values were calculated using GraphPad Prism 8.0 software.

[2] = tested on: MX-1 cells (BRCA1-deficient); test: Cell proliferation assay (CellTiter-Glo), MX-1; format: cell-based; details: for IC50: Homo sapiens, MX1, light or radiation study, 10 days incubation
Experimental: (§1) To assess the cytotoxicity of test compounds on BRCA-deficient cells using a CellTiter-Glo assay. MX-1 cells (BRCA1-deficient) and Capan-1 cells (BRCA2-deficient) were seeded in 96-well plates at densities that allowed linear growth for 10 days, and adhered overnight at 37 °C in a humidified atmosphere of 5% CO2. Cells were treated in their recommended growth medium containing varying concentrations of test compounds. […] After 10 days of incubation, CellTiter-Glo Reagent (Promega, Madison, WI, USA) was added to the plates, which continued to be incubated for 30 min at room temperature. Chemiluminescence values were recorded by a multiplate reader, and IC50 values were calculated using GraphPad Prism 8.0 software.

[3] = tested on: Capan-1 cells (BRCA2-deficient); test: Cell proliferation assay (CellTiter-Glo), Capan-1; format: cell-based; details: for IC50: Homo sapiens, CAPAN-1, light or radiation study, 10 days incubation
Experimental: as §1

[4] = Talazoparib UV stability assay (HPLC); format: physicochemical; details: 2.63 mM in methanol, 365 nm, up to 10 min
Experimental: The irradiation times were 1 min, 2 min, 3 min, 4 min, 5 min, and 10 min. The irradiated solution was transferred to a volumetric flask and diluted to the same volume with methanol. Then HPLC analysis was performed to detect the compound peak area. […] California, CA, USA) using a mobile phase A (water) and mobile phase B (acetonitrile (ACN)) to elute. The gradient changed from 70% A to 30% A in 10 min, then continuing to elute with 30% A for 5 min. The flow rate was 1 mL/min, and the detection wavelength was 220 nm.

[5] = tested on: PARP; details: PARP inhibitor potency; cited from earlier work
[6] = target: T1, PARP-1 enzyme (Homo sapiens, UniProt P09874); test: PARP-1 enzyme inhibition assay (PARP-1 Chemiluminescent Assay Kit); format: biochemical
T1 construct: purchased BPS 80569
Experimental: A PARP-1 Chemiluminescent Assay Kit (Cat# 80569, BPS, San Diego, CA, USA) was used to detect the ability of compounds to inhibit PARP-1 enzyme activity. All experimental steps followed the operating manual. Firstly, each well was precoated with 25 μL 1× histone mixture that was diluted in PBS by incubation at 4 °C overnight. The wells were blocked by adding 100 μL of blocking buffer, then incubated at room temperature for 90 min. Then 12.5 μL of the prepared 1× PARP assay mixture and 1× activated DNA in 1× PARP buffer were added into each well of the assay plate, and 2.5 μL of compound or solvent control were added at varying concentrations. The reaction was initiated by the addition of 10 μL 1 ng/μL PARP-1 enzyme in 1× PARP buffer at room temperature for 60 min. Next, the reaction solution was added with 25 μL of diluted Streptavidin-HRP (1:50 in blocking buffer) to each well at room temperature for an additional 30 min. Finally, 25 μL of Horseradish Peroxidase (HRP) chemiluminescent substrate A and 25 μL of HRP chemiluminescent substrate B were mixed on ice, and the mixture was added by 50 μL per well. The luminescent signal was measured using a multi-function microplate reader, and IC50 values were calculated using GraphPad Prism 8.0 software.

[7] = Phosphate-buffered saline stability of the photoactivatable prodrug (HPLC); format: physicochemical; details: 20 μM, pH = 7.4 PBS with 10% DMSO, 37 °C, 48 h
Experimental: Twenty μM of the test compound in pH = 7.4 PBS, containing 10% DMSO, were transferred to 13 1 mL volumetric flasks in equal volumes, incubated at 37 °C. The volumetric flasks were taken out at 0 min, 5 min, 10 min, 15 min, 30 min, 1 h, 2 h, 4 h, 8 h, 12 h, 24 h, 48 h, and 7 days, and were frozen at −80 °C. The samples were thawed in sequence and diluted to the same volume with methanol. Then HPLC analysis was performed to detect the compound peak area. Samples were determined on an Agilent Eclipse Plus C18 column (4.6 × 150 mm, 5 μm particle size; California, CA, USA) using a mobile phase A (water) and mobile phase B (ACN) to elute. The gradient changed from 70% A to 30% A in 10 min, continuing to elute with 30% A for 5 min. The flow rate was 1 mL/min, and the detection wavelength was 220 nm.

[8] = UV cleavage test in methanol (HPLC); format: physicochemical; details: 20 μM in methanol, 365 nm UV
Experimental: The compound was dissolved in methanol (20 μM), and the solution were irradiated at 365 nm by using an UV crosslinker. Every minute from 0 to 10 min, aliquot samples (200 μL) were determined on an Agilent Eclipse Plus C18 column (4.6 × 150 mm, 5 μm particle size) using mobile phase A (water) and mobile phase B (ACN) to elute. The gradient changed from 70% A to 30% A in 10 min, continuing to elute with 30% A for 5 min. The flow rate was 1 mL/min and the detection wavelength was 220 nm. The peak areas percentage of the compounds at each time point were plotted against the sampling time.

[9] = UV cleavage test in culture medium DMEM in 96-well plate (HPLC); format: physicochemical; details: 10 μM in DMEM, 365 nm, 3 min
Experimental: Therefore, we tested the Capan-1 cells that could tolerate a longer UV irradiation duration. […] We simulated the same cytotoxicity experimental conditions to evaluate the photolysis of 10 μΜ compound 3 (10 μM is the starting concentration of compound 3 in cytotoxicity experiments) in a 96-well plate.
Supplementary Materials: Design, Synthesis and In Vitro Evaluation of the […]
Jiaguo Li 1, 2, Dian Xiao 2, Lianqi Liu 2, Fei Xie 2, Wei Li 2, Wei Sun 1,*, Xiaohong Yang 1,*, and Xinbo Zhou 2,* […]
wavelength scanning; (B) Local UV/Vis absorption spectra with a wavelength range of 290-500 nm. Compound […]
Introduction of the PPG into the parent compound's molecular structure leads to increased light absorption around 365 nm. Wavelengths shorter than 300 nm is highly energetic and can easily damage tissues and cells. Therefore, 365 nm was considered as the optimal wavelength for deprotection.
Figure S2. UV-cleavage test on the Compound 3 in culture medium DMEM. Compound 3 were dissolved in DMEM medium containing 0.1 %DMSO and added to 96-well plates at a final concentration of 10 μM. After being irradiated for 1 min and 3 min at 365 nm respectively, the samples were analyzed by HPLC. The peak area is plotted against the irradiation time. […]

[10] = UV+, compound irradiated 20 min at 365 nm before addition to cells

T1 sequence (P09874 whole entry): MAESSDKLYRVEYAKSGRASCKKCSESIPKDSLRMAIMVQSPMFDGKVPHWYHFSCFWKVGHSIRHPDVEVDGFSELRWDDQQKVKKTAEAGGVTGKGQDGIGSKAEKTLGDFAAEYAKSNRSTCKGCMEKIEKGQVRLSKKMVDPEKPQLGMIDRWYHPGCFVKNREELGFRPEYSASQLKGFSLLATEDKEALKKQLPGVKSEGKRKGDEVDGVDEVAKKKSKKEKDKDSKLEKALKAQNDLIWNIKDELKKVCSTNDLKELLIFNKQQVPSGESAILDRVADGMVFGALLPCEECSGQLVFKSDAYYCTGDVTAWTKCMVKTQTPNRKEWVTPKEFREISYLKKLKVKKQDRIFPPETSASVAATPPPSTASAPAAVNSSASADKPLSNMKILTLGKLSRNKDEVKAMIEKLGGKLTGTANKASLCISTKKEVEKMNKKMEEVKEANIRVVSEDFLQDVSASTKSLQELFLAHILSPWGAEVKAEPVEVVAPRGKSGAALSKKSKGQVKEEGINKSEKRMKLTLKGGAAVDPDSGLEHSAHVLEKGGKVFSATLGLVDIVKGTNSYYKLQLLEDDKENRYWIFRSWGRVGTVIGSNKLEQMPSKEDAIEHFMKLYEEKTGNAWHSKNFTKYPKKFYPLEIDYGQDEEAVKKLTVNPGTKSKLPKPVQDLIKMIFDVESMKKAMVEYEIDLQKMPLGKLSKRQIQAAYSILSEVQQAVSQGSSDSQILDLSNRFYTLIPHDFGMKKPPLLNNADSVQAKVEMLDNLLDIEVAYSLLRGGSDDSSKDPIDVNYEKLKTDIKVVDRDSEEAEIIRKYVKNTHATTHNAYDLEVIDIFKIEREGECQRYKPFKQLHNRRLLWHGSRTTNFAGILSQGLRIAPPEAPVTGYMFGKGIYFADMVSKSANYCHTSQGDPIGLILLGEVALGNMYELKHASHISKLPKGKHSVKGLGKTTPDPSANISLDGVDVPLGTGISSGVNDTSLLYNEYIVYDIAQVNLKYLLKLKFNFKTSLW

Row | SMILES | IC50 [1] [nM] | IC50 ([2]; 240 h, UV-, no irradiation) [nM] | IC50 ([3]; 240 h, UV-, no irradiation) [nM] | UV stability (HPLC peak area) [4] | IC50 [5] [nM] | IC50 [6] [nM] | reduction of PARP-1 inhibitory activity versus Talazoparib ([6]; ratio of IC50 values, compound 3 vs Talazoparib) [times] | decrease of PARylation inhibitory activity versus Talazoparib ([1]; ratio of IC50 values) [times] | IC50 ([2]; UV+, 365 nm irradiation of cells 1 min after 1 h incubation) [nM] | inhibitory activity on MX-1 cells after UV irradiation versus non-irradiated group ([2]; UV 1 min vs no UV) | IC50 ([3]; UV+, 365 nm irradiation of cells 3 min after 1 h incubation) [nM] | inhibitory activity on Capan-1 cells after UV irradiation versus non-irradiated group ([3]; UV 3 min vs no UV) | stability in PBS (HPLC peak area) [7] | irradiation time to complete release (photolysis) [8] [min] | release after UV irradiation under cytotoxicity experimental conditions [9] | IC50 [2, 10] [nM] | IC50 [3, 10] [nM]
1 | Cn1ncnc1[C@H]1c2n[nH]c(=O)c3cc(F)cc(c23)N[C@@H]1c1ccc(F)cc1 [Talazoparib, reference compound] | […] | 15 | 3 | no significant loss | […] |  |  |  |  |  |  |  |  |  |  |  | 
2 | Cn1ncnc1[C@H]1c2nn(Cc3cc4c(cc3[N+](=O)[O-])OCO4)c(=O)c3cc(F)cc(c23)N[C@@H]1c1ccc(F)cc1 [compound 3, (8S,9R)-5-Fluoro-8-(4-fluorophenyl)-9-(1-methyl-1H-1,2,4-triazol-5-yl)-2-((6-nitrobenzo[d][1,3]dioxol-5-yl)methyl)-2,7,8,9-tetrahydro-3H pyrido[4,3,2-de]phthalazin-3-one] | 329 | 1870 | 863 |  |  | 1920 | 380 | ≥ 658 | 577 | approximately three times higher | 92 | nine times higher | did not show significant changes | 3 | not released completely |  | 
3 | C[C@H](NC(=O)OC(C)(C)C)C(=O)OCc1cc2c(cc1[N+](=O)[O-])OCO2 [compound 6, (6-Nitrobenzo[d][1,3]dioxol-5-yl)methyl (tert-butoxycarbonyl)-L-alaninate] |  | > 10000 | > 10000 |  |  |  |  |  |  |  |  |  |  | ≤ 20 |  | > 10000 | > 10000
